We go through 29 compounds from patent US9382254B2, “Compounds and pharmaceutical compositions thereof for the treatment of cystic fibrosis” (Galapagos NV, priority 2013, dated 2016).

What all share (assay type): cell-based
Test [1] deals with T1, CFTR ΔF508 mutant (Homo sapiens, UniProt P13569, DEL508-508).
T1 construct: expressed in transfected cells; host or cells: CFBE41o- (adenoviral transduction)
Put plainly: YFP-halide influx assay for the CFTR-ΔF508 mutation, gluconate buffer. The following applies: CFBE41o- cells, forskolin 10.67 μM. From the text: The YFP halide influx assay measures the functionality of the cystic fibrosis Transmembrane Conductance regulator (CFTR) channels in the cystic fibrosis bronchial epithelium cell line CFBE41o-. The assay is used to evaluate the capacity of compounds to increase the open probability of existing CFTR channels in the membrane. It makes use of the observation that the yellow fluorescent protein (YFP) variant YFP H148Q, I152L has its fluorescence substantially quenched by halide ions like Cl^− and I^−. (Galietta, Haggie, & Verkman, 2001) (Nagai, et al., 2002)
For this purpose, CFBE41o-cells are seeded in 96 well plates (6000 CFBE cells/well). One day after seeding, the CFBE cells are transduced with adenoviral vectors that direct the expression of the CFTR ΔF508 mutant and of the YFP reporter. Cells are incubated at 27° C., 5% CO2 for 24 hours so as to allow for the proper folding and migration to the membrane of the CFTR channel or treated with a CFTR modulator during 24 hours at 37° C.
The I^−-induced quenching of fluorescence is recorded immediately after injection of I^− for 7 seconds. The capacity of a compound to increase the channel opening is directly correlated with the decrease in fluorescence, and is expressed as (1-(fluorescence after 7 seconds (F)/fluorescence before injection (F0))) and an EC50 can be derived from a (1-F/F0) vs compound concentration plot.

In test [2] the target is T2, CFTR G551D mutant (Homo sapiens, UniProt P13569, G551D).
T2 construct: expressed in transfected cells; host or cells: HEK293 (reverse transfection with plasmid)
Put plainly: YFP-halide influx assay for the CFTR-G551D mutation. Particulars: HEK293 cells, forskolin 10.67 μM. In outline: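 Channel opening potentiation measured as 1−F/F0, where F is YFP fluorescence 7 s after iodide injection and F0 before; EC50 taken from concentration plot. Cells: HEK293 transiently expressing CFTR G551D plus halide-sensitive YFP (H148Q, I152L, F47L), 24 h at 37 °C, 5% CO2.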

The target in test [3] is T1, CFTR ΔF508 mutant. Put plainly: YFP-halide influx assay for the CFTR-ΔF508 mutation (384 well, FDSS/μCell). Particulars: CFBE41o- cells, CFTR-ΔF508, 1×D-PBS, fluorescence after 36 seconds. In outline: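 Potentiator read-out as 1−F/F0, F taken 36 s after iodide addition, EC50 fitted against compound concentration. Cells: CFBE41o- expressing ΔF508 CFTR plus halide-sensitive YFP via adenovirus, rescued by 27 °C for 24 h or 24 h modulator at 37 °C.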

The structures appear in SMILES notation.

T2 sequence (P13569 whole entry G551D): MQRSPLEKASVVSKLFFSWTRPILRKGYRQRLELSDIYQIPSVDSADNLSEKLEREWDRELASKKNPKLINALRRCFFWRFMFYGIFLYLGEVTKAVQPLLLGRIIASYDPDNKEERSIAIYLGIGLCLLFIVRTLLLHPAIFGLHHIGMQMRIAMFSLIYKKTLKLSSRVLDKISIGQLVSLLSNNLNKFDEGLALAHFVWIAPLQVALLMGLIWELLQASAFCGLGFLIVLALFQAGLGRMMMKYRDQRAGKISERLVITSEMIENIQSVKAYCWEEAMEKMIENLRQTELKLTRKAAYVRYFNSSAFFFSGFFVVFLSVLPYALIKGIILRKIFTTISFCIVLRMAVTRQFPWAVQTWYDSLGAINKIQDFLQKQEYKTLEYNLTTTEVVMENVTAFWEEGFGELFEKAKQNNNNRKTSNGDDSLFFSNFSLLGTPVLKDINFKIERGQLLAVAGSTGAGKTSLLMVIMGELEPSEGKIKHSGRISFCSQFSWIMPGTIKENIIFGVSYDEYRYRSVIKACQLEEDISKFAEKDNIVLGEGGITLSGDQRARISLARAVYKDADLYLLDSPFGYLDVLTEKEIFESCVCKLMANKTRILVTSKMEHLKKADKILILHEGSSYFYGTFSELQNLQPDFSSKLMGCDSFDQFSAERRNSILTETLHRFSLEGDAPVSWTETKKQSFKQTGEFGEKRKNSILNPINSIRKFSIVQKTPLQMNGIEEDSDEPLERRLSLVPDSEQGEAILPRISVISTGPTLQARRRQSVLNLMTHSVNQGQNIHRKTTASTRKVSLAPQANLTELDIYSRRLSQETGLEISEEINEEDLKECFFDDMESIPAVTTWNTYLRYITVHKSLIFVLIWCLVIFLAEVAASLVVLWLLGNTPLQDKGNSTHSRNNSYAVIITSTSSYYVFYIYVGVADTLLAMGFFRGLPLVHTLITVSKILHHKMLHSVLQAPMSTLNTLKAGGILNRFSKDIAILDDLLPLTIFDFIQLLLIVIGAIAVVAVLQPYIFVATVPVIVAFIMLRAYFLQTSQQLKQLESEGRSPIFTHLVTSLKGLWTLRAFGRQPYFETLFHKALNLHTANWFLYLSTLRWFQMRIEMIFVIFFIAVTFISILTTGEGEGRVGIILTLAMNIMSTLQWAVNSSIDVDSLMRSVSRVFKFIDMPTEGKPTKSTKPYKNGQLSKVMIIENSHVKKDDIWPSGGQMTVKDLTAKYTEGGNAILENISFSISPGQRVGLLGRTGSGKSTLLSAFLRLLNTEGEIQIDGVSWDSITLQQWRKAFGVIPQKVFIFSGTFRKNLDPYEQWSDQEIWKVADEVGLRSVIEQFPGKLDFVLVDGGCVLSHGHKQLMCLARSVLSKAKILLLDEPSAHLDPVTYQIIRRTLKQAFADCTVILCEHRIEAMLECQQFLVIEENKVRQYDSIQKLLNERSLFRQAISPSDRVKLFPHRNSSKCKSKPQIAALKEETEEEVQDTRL
T1 sequence (P13569 with tags, fused parts or gaps DEL508-508): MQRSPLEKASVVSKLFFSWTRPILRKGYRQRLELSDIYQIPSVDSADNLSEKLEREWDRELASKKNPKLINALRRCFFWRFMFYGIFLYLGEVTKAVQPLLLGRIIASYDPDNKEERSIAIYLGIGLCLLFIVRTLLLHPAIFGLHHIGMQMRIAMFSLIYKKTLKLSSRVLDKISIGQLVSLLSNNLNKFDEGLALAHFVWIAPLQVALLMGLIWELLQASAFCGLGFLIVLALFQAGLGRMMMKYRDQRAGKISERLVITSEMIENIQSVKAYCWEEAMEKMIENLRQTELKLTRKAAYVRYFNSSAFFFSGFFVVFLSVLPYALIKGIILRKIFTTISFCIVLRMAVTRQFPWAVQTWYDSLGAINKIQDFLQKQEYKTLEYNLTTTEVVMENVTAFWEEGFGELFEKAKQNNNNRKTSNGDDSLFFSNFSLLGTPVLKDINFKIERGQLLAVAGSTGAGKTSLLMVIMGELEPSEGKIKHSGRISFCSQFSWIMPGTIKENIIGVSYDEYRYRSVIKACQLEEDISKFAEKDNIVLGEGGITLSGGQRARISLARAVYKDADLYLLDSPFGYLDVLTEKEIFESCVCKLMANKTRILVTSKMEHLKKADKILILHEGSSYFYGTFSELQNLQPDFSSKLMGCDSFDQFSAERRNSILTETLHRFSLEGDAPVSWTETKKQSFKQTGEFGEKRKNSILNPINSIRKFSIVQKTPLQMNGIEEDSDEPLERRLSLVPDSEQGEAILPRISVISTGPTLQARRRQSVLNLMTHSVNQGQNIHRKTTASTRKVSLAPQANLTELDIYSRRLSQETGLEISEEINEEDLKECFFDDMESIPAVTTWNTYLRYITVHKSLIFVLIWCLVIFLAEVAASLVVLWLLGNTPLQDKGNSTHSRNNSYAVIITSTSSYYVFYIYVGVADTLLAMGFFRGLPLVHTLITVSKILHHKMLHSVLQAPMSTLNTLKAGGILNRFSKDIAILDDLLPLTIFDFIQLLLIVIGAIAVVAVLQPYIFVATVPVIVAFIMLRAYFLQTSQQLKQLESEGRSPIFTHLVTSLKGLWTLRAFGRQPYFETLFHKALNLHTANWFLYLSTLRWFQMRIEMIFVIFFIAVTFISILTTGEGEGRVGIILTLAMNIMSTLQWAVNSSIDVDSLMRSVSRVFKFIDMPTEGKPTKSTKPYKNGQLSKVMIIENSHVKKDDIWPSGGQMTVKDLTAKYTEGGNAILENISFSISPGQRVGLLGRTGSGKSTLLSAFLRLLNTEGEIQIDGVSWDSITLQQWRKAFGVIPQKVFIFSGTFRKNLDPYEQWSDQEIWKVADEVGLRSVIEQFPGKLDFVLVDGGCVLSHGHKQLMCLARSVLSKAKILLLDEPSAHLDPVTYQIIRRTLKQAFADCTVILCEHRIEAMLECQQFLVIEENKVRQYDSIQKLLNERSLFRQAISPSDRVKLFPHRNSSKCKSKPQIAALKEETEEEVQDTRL

Usually EC50 stands for the concentration giving half of the maximal effect. A higher EC50 goes with a less potent agent. The compound `CN(CC(C)(C)C)S(=O)(=O)c1cc(C(N)=O)c(NC(=O)c2ccccc2F)s1` [Compound 184, 2-(2-fluorobenzamido)-5-(N-methyl-N-neopentylsulfamoyl) thiophene-3-carboxamide] had an EC50 in test [1] of 679 nM.
The same measure, in the same setting: the same measure for `NC(=O)c1cc(S(=O)(=O)N2CCOCC2)sc1NC(=O)c1cccc(O)c1` [Compound 137, 2-(3-hydroxybenzamido)-5-(morpholinosulfonyl) thiphene-3-carboxamide]: 263 nM; for `NC(=O)c1cc(S(=O)(=O)N2CCCCC2)sc1NC(=O)C1CC(F)(F)C1` [Compound 44, 2-(3,3-difluorocyclobutanecarboxamido)-5-(piperidin-1-ylsulfonyl) thiophene-3-carboxamide]: 696 nM; for `CN(CC(F)F)S(=O)(=O)c1cc(C(N)=O)c(NC(=O)c2ccccc2F)s1` [Compound 108, 5-(N-(2,2-difluoroethyl)-N-methylsulfamoyl)-2-(2-fluorobenzamido) thiophene-3-carboxamide]: 198 nM.
In turn, `CN(C)S(=O)(=O)c1cc(C(N)=O)c(NC(=O)c2ccccc2F)s1` [Compound 74, 5-(N,N-dimethylsulfamoyl)-2-(2-fluorobenzamido) thiophene-3-carboxamide] gave an EC50 in test [1] of 135 nM.
As for `COc1cccc(C(=O)Nc2sc(S(=O)(=O)N3CCCCC3)cc2C(N)=O)c1` [Compound 18, 2-(3-methoxybenzamido)-5-(piperidin-1-ylsulfonyl)thiophene-3-carboxamide], the EC50 in test [1] is 472 nM.
Same read-out and setting: the same measure for `Cc1c(S(=O)(=O)N2CCOCC2)sc(NC(=O)C(C)(C)C)c1C(N)=O` [Compound 92, 4-methyl-5-(morpholinosulfonyl)-2-pivalamidothiophene-3-carboxamide]: 953 nM; for `CC(C)S(=O)(=O)c1cc(C(N)=O)c(NC(=O)c2ccccc2F)s1` [Compound 163, 2-(2-fluorobenzamido)-5-(isopropylsulfonyl) thiophene-3-carboxamide]: 272 nM; for `NC(=O)c1cc(S(=O)(=O)C2CCOCC2)sc1NC(=O)c1ccccc1F` [Compound 165, 2-(2-fluorobenzamido)-5-(tetrahydro-2H-pyran-4-ylsulfonyl)thiophene-3-carboxamide]: over 1000 nM.
In test [1], `CC(C)(C)c1cc(C(=O)Nc2sc(S(=O)(=O)N3CCOCC3)cc2C(N)=O)n[nH]1` [Compound 68, 5-tert-butyl-N-(3-carbamoyl-5-(morpholinosulfonyl)thiophen-2-yl)-1H-pyrazole-3-carboxamide] came in with an EC50 of 129 nM.
`NC(=O)c1cc(S(=O)(=O)N2CCCCC2)sc1NC(=O)c1ccc(Cl)cc1` [Compound 20, 2-(4-chlorobenzamido)-5-(piperidin-1-ylsulfonyl)thiophene-3-carboxamide]: the EC50 in test [1] is 392 nM.
In test [1], `Cc1ccccc1S(=O)(=O)c1cc(C(N)=O)c(NC(=O)c2ccccc2F)s1` [Compound 180, 2-(2-fluorobenzamido)-5-(o-tolylsulfonyl)thiophene-3-carboxamide] showed a half-maximal effective concentration (EC50) of 123 nM.
The same measure, in the same setting: the same measure for `NC(=O)c1cc(S(=O)(=O)N2CCCCC2)sc1NC(=O)c1ccccc1C1CC1` [Compound 52, 2-(2-cyclopropylbenzamido)-5-(piperidin-1-ylsulfonyl) thiophene-3-carboxamide]: 204 nM; for `CC(C)(C)C(=O)Nc1sc(S(=O)(=O)N2CCC(F)(F)CC2)cc1C(N)=O` [Compound 67, 5-(4,4-difluoropiperidin-1-ylsulfonyl)-2-pivalamidothiophene-3-carboxamide]: 250 nM; for `NC(=O)c1cc(S(=O)(=O)N2CCCCC2)sc1NC(=O)C1CC1` [Compound 42, 2-(cyclopropanecarboxamido)-5-(piperidin-1-ylsulfonyl) thiophene-3-carboxamide]: 739 nM.
Turning to `NC(=O)c1cc(S(=O)(=O)N2CCOCC2)sc1NC(=O)c1cccnn1` [Compound 79, N-(3-carbamoyl-5-(morpholinosulfonyl)thiophen-2-yl) pyridazine-3-carboxamide], the EC50 in test [1] was over 1000 nM.
The same measure, in the same setting: in the case of `NC(=O)c1cc(S(=O)(=O)N2CCOCC2)sc1NC(=O)c1cc(C(F)(F)F)[nH]n1` [Compound 102, N-(3-carbamoyl-5-(morpholinosulfonyl)thiophen-2-yl)-5-(trifluoromethyl)-1H-pyrazole-3-carboxamide] it was 215 nM; in that of `Cc1nc(C(=O)Nc2sc(S(=O)(=O)N3CCOCC3)cc2C(N)=O)cs1` [Compound 132, N-(3-carbamoyl-5-(morpholinosulfonyl)thiophen-2-yl)-2-methylthiazole-4-carboxamide], 3330 nM; in that of `NC(=O)c1cc(S(=O)(=O)N2CCCCC2)sc1NC(=O)c1cnccn1` [Compound 34, N-(3-carbamoyl-5-(piperidin-1-ylsulfonyl)thiophen-2-yl)pyrazine-2-carboxamide], 290 nM.
With `CC(C)(O)C(=O)Nc1sc(S(=O)(=O)c2ccc(C#N)cc2F)cc1C(N)=O` [Compound 406, 5-(4-cyano-2-fluoro-phenyl)sulfonyl-2-[(2-hydroxy-2-methyl-propanoyl)amino] thiophene-3-carboxamide], the EC50 came to 1310 nM in test [2] and 56.1 nM in test [3].
On to `CC(C)(O)C(=O)Nc1sc(S(=O)(=O)c2ccc(C(F)(F)F)nn2)cc1C(N)=O` [Compound 431, 2-[(2-hydroxy-2-methyl-propanoyl)amino]-5-[6-(trifluoromethyl)pyridazin-3-yl]sulfonyl-thiophene-3-carboxamide], for which the EC50 in test [2] worked out at 2220 nM; in test [3] it was 150 nM.
Turning to `CC(C)Oc1ccc(S(=O)(=O)c2cc(C(N)=O)c(NC(=O)C(C)(C)O)s2)c(C(F)(F)F)c1` [Compound 324, 2-(2-Hydroxy-2-methyl-propionylamino)-5-(4-isopropoxy-2-trifluoromethyl-benzenesulfonyl)-thiophene-3-carboxylic acid amide], the figures for the EC50 in test [2] and in test [3] were 3160 nM and 84.2 nM, respectively.
For the compound `CC(O)C(=O)Nc1sc(S(=O)(=O)c2c(F)cccc2F)cc1C(N)=O` (stereo not drawn) [Compound 313, 5-(2,6-Difluoro-benzenesulfonyl)-2-(2-hydroxy-propionylamino)-thiophene-3-carboxylic acid amide], the figures for the EC50 in test [2] and in test [3] were 2930 nM and 38.3 nM, respectively.
Taken in the same sequence, the figures for `CC(C)(C)[C@H](O)C(=O)Nc1sc(S(=O)(=O)c2ccc(C(F)(F)F)cc2)cc1C(N)=O` [Compound 365, 2-[[(2S)-2-hydroxy-3,3-dimethyl-butanoyl]amino]-5-[4-(trifluoromethyl)phenyl] sulfonyl-thiophene-3-carboxamide] were 306 nM and 29.9 nM.
Consider `CC(C)(O)C(=O)Nc1sc(S(=O)(=O)c2cc(F)ccc2CC(F)(F)F)cc1C(N)=O` [Compound 338, 5-[5-fluoro-2-(2,2,2-trifluoroethyl)phenyl]sulfonyl-2-[(2-hydroxy-2-methyl-propanoyl)amino] thiophene-3-carboxamide], for which the 50% effective concentration (EC50) in test [2] turned out to be 859 nM; in test [3], 5.4 nM.
Take `CC(C)(O)C(=O)Nc1sc(S(=O)(=O)c2cc(CC#N)cc(OC(F)(F)F)c2)cc1C(N)=O` [Compound 428, 5-[3-(cyanomethyl)-5-(trifluoromethoxy)phenyl] sulfonyl-2-[(2-hydroxy-2-methyl-propanoyl)amino] thiophene-3-carboxamide]: the concentration giving a half-maximal response (EC50) was 3330 nM in test [2] and 76.1 nM in test [3].
Taken in the same sequence, the figures for `CC(C)(O)C(=O)Nc1sc(S(=O)(=O)c2cc(Cl)cnc2C(F)(F)F)cc1C(N)=O` [Compound 440, 5-[[5-chloro-2-(trifluoromethyl)-3-pyridyl]sulfonyl]-2-[(2-hydroxy-2-methyl-propanoyl)amino] thiophene-3-carboxamide] were 2190 nM and 13 nM.
Taken in the same sequence, the figures for `CC(CO)C(=O)Nc1sc(S(=O)(=O)c2ccc(OC(F)(F)F)cn2)cc1C(N)=O` (stereo not drawn) [Compound 392, 2-[(3-hydroxy-2-methyl-propanoyl)amino]-5-[[5-(trifluoromethoxy)-2-pyridyl]sulfonyl] thiophene-3-carboxamide] were 1600 nM and 84.6 nM.
Turning to `CC(O)C(=O)Nc1sc(S(=O)(=O)c2ccccc2Cl)cc1C(N)=O` (stereo not drawn) [Compound 321, 5-(2-Chloro-benzenesulfonyl)-2-(2-hydroxy-propionylamino)-thiophene-3-carboxylic acid amide], the concentration for a half-maximal effect (EC50) in test [2] is 1930 nM; in test [3] it was 12.3 nM.
